We go through 2 molecules from patent US7524862B2 (Boehringer Ingelheim International GmbH, priority 2004, dated 2009).

For this experiment, the target named is T1, human hMCH-1R (Homo sapiens, UniProt Q99705).
T1 construct: expressed in transfected cells; host or cells: CHO/Galpha16 cells (stably transfected), membranes
Kind of experiment: MCH-1 receptor binding test. As to conditions: membranes from CHO/Galpha16 cells stably transfected with hMCH-1R; 125I-MCH. The protocol:
Membranes from CHO/Galpha16 cells stably transfected with human hMCH-1R are resuspended using a syringe (needle 0.6×25 mm) and diluted in test buffer (50 mM HEPES, 10 mM MgCl2, 2 mM EGTA, pH 7.00; 0.1% bovine serum albumin (protease-free), 0.021% bacitracin, 1 μg/mL aprotinin, 1 μg/mL leupeptin and 1 μM phosphoramidone) to a concentration of 5 to 15 μg/mL. […] After the incubation, the reaction is filtered using a cell harvester through 0.5% PEI treated fiberglass filters (GF/B, Unifilter Packard). The membrane-bound radioactivity retained on the filter is then determined after the addition of scintillator substance (Packard Microscint 20) in a measuring device (TopCount of Packard). […] The analysis of the concentration binding curve is carried out on the assumption of one receptor binding site.

T1 sequence (Q99705 whole entry): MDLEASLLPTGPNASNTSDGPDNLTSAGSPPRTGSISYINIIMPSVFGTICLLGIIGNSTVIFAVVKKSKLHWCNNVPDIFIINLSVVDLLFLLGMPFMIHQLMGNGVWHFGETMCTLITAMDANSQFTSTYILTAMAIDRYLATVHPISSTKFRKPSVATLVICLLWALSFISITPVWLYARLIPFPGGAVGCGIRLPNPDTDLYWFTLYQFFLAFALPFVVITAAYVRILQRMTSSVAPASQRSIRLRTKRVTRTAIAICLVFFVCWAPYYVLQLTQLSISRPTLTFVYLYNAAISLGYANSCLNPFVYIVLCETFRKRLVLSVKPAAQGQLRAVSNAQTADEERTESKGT

For the molecule `Cc1cc(N2CCC(C)CC2)nc2ccc(C#Cc3ccc(-c4ccc(Cl)cc4)cn3)cc12` [Example 1.43, 6-[5-(4-chlorophenyl)pyridin-2-ylethynyl]-4-methyl-2-(4-methylpiperidin-1-yl)quinoline], the IC50 came out at 246 nM.

`Cc1cc(NC(C)C)nc2ccc(C#Cc3ccc(-c4ccc(Cl)cc4)cn3)cc12` [Example 1.44, {6-[5-(4-chlorophenyl)pyridin-2-ylethnyl]-4-methylquinolin-2-yl}isopropylamine] yielded an IC50 of 6.8 nM.
